pIC50, pKi: −log10 of the molar value. Where two headings read alike, the source gives them in different places.
Tests used:
[1] = target: unphosphorylated VEGF-R2Δ50 (FLVK) (Homo sapiens, UniProt P35968, DEL940-989/E990V); test: VEGF-R2 coupled spectrophotometric assay, unphosphorylated VEGF-R2Δ50 (FLVK); details: for pKi: FLVK Ki, Table 1
[2] = tested on: human umbilical vein endothelial cells (HUVEC); test: HUVEC proliferation assay (VEGF-stimulated, MTT); format: cell-based; details: Homo sapiens, HUVEC, + albumin; read-out: HUVEC + albumin IC50
[3] = Determination of inhibitor concentration in mouse plasma after intraperitoneal and oral dosing; format: in vivo
Method: Blood collection was via ocular bleed at 0.5, 1, 4 hr with the final time point, 7 hour, via intracardiac puncture. The blood was centrifuged to collect plasma, which was then stored at −80° C. until analysis. Samples were prepared for analysis using an internal standard and sodium hydroxide. After vortexing, ethyl acetate was added and mixed for 15-20 minutes at ambient temperature. […] The samples were then analyzed via HPLC or LC-MS. Compound levels were quantitated by generating a standard curve of known compound concentration in mouse plasma.

[4] = PO, 25 mg/kg, vehicle PEG400:H2O pH 2.3 30:70
[5] = female, PO, 25 mg/kg, vehicle PEG400:H2O pH 2.3 30:70, read-out: Cmin (7 hr conc.)
[6] = IP, 25 mg/kg, vehicle PEG400:H2O pH 2.3 60:40
[7] = PO, 50 mg/kg, vehicle PEG400:H2O pH 2.3 60:40

Chain of unphosphorylated VEGF-R2Δ50 (FLVK) (P35968 with tags, fused parts or gaps DEL940-989/E990V limits assumed): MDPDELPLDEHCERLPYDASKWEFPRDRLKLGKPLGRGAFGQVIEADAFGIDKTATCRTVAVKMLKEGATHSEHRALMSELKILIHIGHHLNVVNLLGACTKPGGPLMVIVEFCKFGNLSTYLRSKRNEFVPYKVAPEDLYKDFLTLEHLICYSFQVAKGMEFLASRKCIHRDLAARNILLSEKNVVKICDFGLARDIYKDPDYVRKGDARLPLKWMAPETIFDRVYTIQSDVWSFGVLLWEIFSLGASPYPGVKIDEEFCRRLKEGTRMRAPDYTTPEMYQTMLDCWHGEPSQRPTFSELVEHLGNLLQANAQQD

## COc1cc(-c2ccc3c(-c4cc5ccccc5[nH]4)n[nH]c3c2)ccc1O [Example 2(d), 3-(1H-Indol-2-yl)-6-(3-methoxy-4-hydroxy-phenyl)-1H-indazole]
[1]
  pKi: 8.43

## Oc1ccc(Oc2ccc3c(/C=C/c4ccccc4)n[nH]c3c2)cc1 [Example 9(b), 3-(E-Styryl)-6-[4-hydroxyphenoxy]-1H-indazole]
[1]
  pKi: 7.62

## COCOc1ccc(Oc2ccc3c(/C=C/c4ccccc4)n[nH]c3c2)cc1 [Example 8(b), 3-(E-Styryl)-6-[4-(methoxymethoxy)phenoxy]-1H-indazole]
[1]
  pKi: 7.14

## O=C(c1cccc(NC(=O)C2CC2)c1)c1ccc2c(/C=C/c3ccccn3)n[nH]c2c1 [Example 41(k), 6-[3-(Cyclopropylcarboxanido)benzoyl]-3-E-[2-(pyridin-2-yl)ethenyl]-1H-indazole]
[1]
  pKi: 8.53

## C=C(c1cccc(N)c1)c1ccc2c(/C=C/c3ccccc3)n[nH]c2c1 [Example 21, 6-(1-(3-Aminophenyl)-vinyl)-3-styryl-1H-indazole]
[1]
  pKi: 8.34

## Nc1cccc(C(=O)c2ccc3c(/C=C/c4ccccc4)n[nH]c3c2)c1 [Example 18, (3-Amino-phenyl)-(3-styryl-1H-indazol-6-yl)-methanone]
[1]
  pKi: 7.90

## CN(c1cccc(NC(=O)OCc2ccccc2)c1)c1ccc2c(/C=C/c3ccccc3)n[nH]c2c1 [Example 12(c), {3-[Methyl-(3-styryl-1H-indazol-6-yl)-amino]-phenyl}-carbamic Acid Benzyl Ester]
[1]
  pKi: 8.80

## CCn1nc(C)cc1C(=O)Nc1cccc(Oc2ccc3c(/C=C/c4ccccc4)n[nH]c3c2)c1 [Example 30(e), 6-[3-((1-Ethyl-3-methyl-1H-pyrazol-5-yl)carboxamido)phenoxy]-3-E-stryrylindazole]
[1]
  pKi: 9.43

## O=C(NCc1ccncc1)c1ccccc1Sc1ccc2c(/C=C/c3ccccn3)n[nH]c2c1 [Example 35(p), 6-[2-((Pyrid-4-yl)methylcarbamoyl)phenylsulfanyl]-3-E-[2-(pyridin-2-yl)ethenyl]-1H-indazole]
[2]
  pIC50: < 7.52
[3]; [4]
  AUClast: 1435 ng·h/mL
  plasma half-life (T1/2): 1.3 h
[3]; [5]
  concentration at 7 h: 5 ng/mL

## CN(c1cccc(NC(=O)c2cccc(C(F)(F)F)c2)c1)c1ccc2c(/C=C/c3ccc4c(c3)OCO4)n[nH]c2c1 [Example 16(d), N-(3-{[3-(2-Benzo[1,3]dioxol-5-yl-vinyl)-1H-indazol-6-yl]-methyl-amino}-phenyl)-3-trifluoromethyl-benzamide]
[1]
  pKi: 9.37

## Cc1cc(C(=O)Nc2cc(Nc3ccc4c(/C=C/c5ccccn5)n[nH]c4c3)c(F)cc2C)n(C)n1 [Example 48(b), 6N-(5-((1,3-Dimethyl-1H-pyrazol-5-yl)carboxanddo)-2-fluoro-4-methylphenyl)aminol-3-E-[2-(pyridin-2-yl)ethenyl]-1H-indazole]
[2]
  pIC50: ~8.10
[3]; [4]
  AUClast: 2191 ng·h/mL
  plasma half-life (T1/2): 4 h
[3]; [5]
  concentration at 7 h: 136 ng/mL

## Cc1cc(C(=O)Nc2cc(Nc3ccc4c(/C=C/c5ccccn5)n[nH]c4c3)ccc2C)n(C)n1 [Example 49(b), 6-[N-(3-((1,3-Dimethyl-1H-pyrazol-5-yl)carboxamido)-4-methylphenyl)amino]-3-E-[2-(pyridin-2-yl)ethenyl]-1H-indazole]
[2]
  pIC50: ~8.00
[3]; [4]
  AUClast: 33750 ng·h/mL
  Cmax: 5000 ng/mL
[3]; [5]
  concentration at 7 h: 5000 ng/mL

## CNC(C(=O)Nc1cccc(C(=O)c2ccc3c(/C=C/c4ccccc4)n[nH]c3c2)c1)c1ccccc1 (stereo not drawn) [Example 19(p), 6-[3-(2-Methylamino-2-phenylacetamido)benzoyl]-3-E-styryl-1H-indazole]
[1]
  pKi: 8.82

## CN(c1ccccc1)c1ccc2c(/C=C/c3ccccc3)n[nH]c2c1 [Example 14, Methyl-phenyl-(3-styryl-1H-indazol-6-yl)-amine]
[1]
  pKi: 7.82

## O=C(c1cccc(NC(=O)c2cc(Cl)ccn2)c1)c1ccc2c(/C=C/c3ccccc3)n[nH]c2c1 [Example 19(n), 6-[3-(4-Chloropyridin-2-ylcarboxamido)benzoyl]-3-E-styryl-1H-indazole]
[1]
  pKi: 9.27

## Nc1ccc(CNC(=O)c2ccccc2Sc2ccc3c(/C=C/c4ccccn4)n[nH]c3c2)cc1 [Example 35(l)]
[1]; read-out: FLVK % inhibition
  inhibition at 0.05 µM: 90%

## CCn1nc(C)cc1C(=O)Nc1cc(Nc2ccc3c(/C=C/c4ccccn4)n[nH]c3c2)c(F)cc1C.Cl [Example 59(c), 6-[N-(5-((1-Ethyl-3-methyl-1H-pyrazol-5-yl)carboxamido)-2-fluoro-4-methylphenyl)amino]-3-E-[2-(pyridin-2-yl)ethenyl]-1H-indazole Hydrochloride]
[3]; female, PO, 25 mg/kg, vehicle CMC
  AUC(0-t): 327 µg·h/mL
[3]; female, PO, 25 mg/kg, vehicle CMC, read-out: Cmax
  Cmax: 50000 ng/mL

## Oc1ccc(-c2ccc3c(-c4cc5ccccc5o4)n[nH]c3c2)cc1OCc1ccccc1 [Example 2(e), 3-(Benzofuran-2-yl)-6-(3-benzyloxy-4-hydroxy-phenyl)-1H-indazole]
[1]
  pKi: 7.40

## Cc1ccc2cc(NC(=O)c3ccccc3Sc3ccc4c(/C=C/c5ccccn5)n[nH]c4c3)ccc2n1 [Example 33(b)]
[3]; [6]
  AUClast: 11245 ng·h/mL
  Cmax: 1990 ng/mL
  plasma half-life (T1/2): 3.0 h
[3]; [7]
  AUClast: 3925 ng·h/mL
  Cmax: 1496 ng/mL
  plasma half-life (T1/2): 3.0 h
[3]; female, IP, 25 mg/kg, vehicle PEG400:H2O pH 2.3 60:40, read-out: Cmin (7 hr conc.)
  concentration at 7 h: 902 ng/mL
[3]; female, PO, 50 mg/kg, vehicle PEG400:H2O pH 2.3 60:40, read-out: Cmin (7 hr conc.)
  concentration at 7 h: 76 ng/mL

## C=C(c1cccc(NC(=O)OCc2ccccc2)c1)c1ccc2c(/C=C/c3ccccc3)n[nH]c2c1 [Example 22(c)]
[1]
  pKi: 9.19

## Cc1cc(C(=O)Nc2cccc(C(=O)c3ccc4c(/C=C/c5ccccn5)n[nH]c4c3)c2)cc(Cl)n1 [Example 41(q), 6-[3-((2-Chloro-6-methylpyridin-4-yl)carboxanlido)benzoyl]-3-E-[2-(pyridin-2-yl)ethenyl]-1H-indazole]
[3]; [4]
  plasma half-life (T1/2): 5.2 h
[3]; female, IP, 25 mg/kg, vehicle PEG400:H2O pH 2.3 30:70
  AUC(0-t): > 27 µg·h/mL

## CC(=O)c1cccc(C(=O)Nc2cccc(N(C)c3ccc4c(/C=C/c5ccc6c(c5)OCO6)n[nH]c4c3)c2)c1 [Example 16(e), 3-Acetyl-N-(3-{[3-(2-benzo[1,3]dioxol-5-yl-vinyl)-1H-indazol-6-yl]-methyl-amino}-phenyl)-benzamide]
[1]
  pKi: 8.89

## CC(C)(C)c1ccc(C(=O)Nc2cccc(C(=O)c3ccc4c(/C=C/c5ccccn5)n[nH]c4c3)c2)cc1 [Example 41(s), 6-[3-(4-t-Butylbenzanido)benzoyl]-3-E-[2-(pyridin-2-yl)ethenyl]-1H-indazole]
[1]
  pKi: 9.64

## Cc1cc(C(=O)Nc2cccc(C(=O)c3ccc4c(/C=C/c5ccccn5)n[nH]c4c3)c2)n(C)n1.Cl [Example 59(b), 6-[3-((1,3-Dimethyl-1H-pyrazol-5-yl)carboxamido)benzoyl]-3-E-[2-(pyridin-2-yl)ethenyl]-1H-indazole Hydrochloride]
[3]; female, PO, 50 mg/kg, vehicle CMC
  AUC(0-t): 276 µg·h/mL
[3]; female, PO, 50 mg/kg, vehicle CMC, read-out: Cmin (7 hr conc.)
  concentration at 7 hr: 26900 ng/mL

## CN(O)C(=O)c1ccccc1Sc1ccc2c(/C=C/c3ccccn3)n[nH]c2c1 [Example 35(o), 6-[2-(N-Hydroxy-N-methylcarbamoyl)phenylsulfanyl]-3-E-[2-(pyridin-2-yl)ethenyl]-1H-indazole]
[2]
  pIC50: < 7.00
[3]; [4]
  AUClast: 683 ng·h/mL
  Cmax: 486 ng/mL
  plasma half-life (T1/2): 1.0 h
[3]; [5]
  concentration at 7 h: 3 ng/mL

## O=C(NCCc1cccs1)c1ccccc1Sc1ccc2c(/C=C/c3ccccn3)n[nH]c2c1 [Example 35(hh), 6-[2-(2-(Thien-2-yl)ethylcarbamoyl)phenylsulfanyl]-3-E-[2-(pyridin-2-yl)ethenyl]-1H-indazole]
[3]; [4]
  AUClast: 292 ng·h/mL
  plasma half-life (T1/2): 1.7 h
[3]; [5]
  concentration at 7 h: 5 ng/mL

## Cc1cc(C(=O)Nc2cc(C(=O)c3ccc4c(/C=C/c5ccccn5)n[nH]c4c3)ccc2C)n(C)n1 [Example 41(hh), 6-[3-((1,3-Dimethyl-1H-pyrazol-5-yl)carboxaindo)-4-methylbenzoyl]-3-E-[2-(pyridin-2-yl)ethenyl]-1H-indazole]
[3]; [4]
  AUClast: 5601 ng·h/mL
  Cmax: 1526 ng/mL
  plasma half-life (T1/2): 7.9 h
[3]; [5]
  concentration at 7 h: 405 ng/mL

## CCn1nc(C)cc1C(=O)Nc1cccc(Oc2ccc3c(/C=C/c4cn(C)c(C)n4)n[nH]c3c2)c1 [Example 31(f), 6-[3-((1-Ethyl-3-methyl-1H-pyrazol]-5-yl)carboxanido)phenoxyl-3-E-[2-(1,2-dimethyl-1Himidazol-4-yl)ethenyl]-1H-indazole]
[3]; [4]
  plasma half-life (T1/2): 2.6 h
[3]; female, PO, 25 mg/kg, vehicle PEG400:H2O pH 2.3 30:70
  AUC(0-t): > 245 µg·h/mL
[3]; female, PO, 25 mg/kg, vehicle PEG400:H2O pH 2.3 30:70, read-out: Cmax
  Cmax: > 50000 ng/mL
[3]; [5]
  concentration at 7 h: 9520 ng/mL

## CCn1nc(C)cc1C(=O)Nc1cccc(Oc2ccc3c(/C=C/c4ccccn4)n[nH]c3c2)c1.Cl [Example 59(e), 6-[3-((1-Ethyl-3-methyl-1H-pyrazol-5-yl)carboxamido)phenoxy]-3-E-[2-(pyridin-2-yl)ethenyl]-1H-indazole Hydrochloride]
[3]; PO, 25 mg/kg, vehicle 0.5% CMC
  plasma half-life (T1/2): 21 h
[3]; female, PO, 25 mg/kg, vehicle 0.5% CMC
  AUC(0-t): 12.5 µg·h/mL
[3]; female, PO, 25 mg/kg, vehicle 0.5% CMC, read-out: Cmax
  Cmax: 28800 ng/mL
[3]; female, PO, 25 mg/kg, vehicle 0.5% CMC, read-out: Cmin (7 hr conc.)
  concentration at 7 h: 2140 ng/mL
